# How the values were obtained:
# [1] = target: T1, bradykinin 1 receptor (B1R) of the rat (Rattus norvegicus, UniProt P97583); assay: Functional investigation on the rat bradykinin 1 receptor (B1R), Ca2+ FLIPR assay in CHO K1 rB1R cells; assay type: cell-based; settings: B1R antagonism rat; test substance 10 μM; Ca2+ FLIPR, CHO K1 rB1R cells
# T1 construct: expressed in transfected cells; host or cells: CHO K1 cells
# T1 sequence (P97583 1-337): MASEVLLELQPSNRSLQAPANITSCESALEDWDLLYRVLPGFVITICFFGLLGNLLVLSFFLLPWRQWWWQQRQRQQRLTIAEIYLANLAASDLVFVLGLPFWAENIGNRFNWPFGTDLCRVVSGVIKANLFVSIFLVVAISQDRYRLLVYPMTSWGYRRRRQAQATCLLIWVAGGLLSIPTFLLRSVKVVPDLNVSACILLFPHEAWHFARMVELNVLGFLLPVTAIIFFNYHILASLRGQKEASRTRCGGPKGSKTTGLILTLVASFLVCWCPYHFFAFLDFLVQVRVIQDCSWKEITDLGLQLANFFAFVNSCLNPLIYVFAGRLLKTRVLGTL
# How it was run: (§1)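 Fluo-4 Ca2+ readout, peak fluorescence. Stable CHO K1 transfectants; compound pre-incubated 10-20 min, then EC80 agonist—Lys-Des-Arg9-BK for hB1R, Des-Arg9-BK for rB1R. % inhibition vs maximal inhibition; IC50 from multiple concentrations, duplicate/triplicate, ≥2 independent runs.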
# [2] = target: T2, human bradykinin 1 receptor (B1R) (Homo sapiens, UniProt P46663); assay: Functional investigation on the human bradykinin 1 receptor (B1R), Ca2+ FLIPR assay in CHO K1 hB1R cells; assay type: cell-based; settings: B1R antagonism human; test substance 10 μM; Ca2+ FLIPR, CHO K1 hB1R cells
# T2 construct: expressed in transfected cells; host or cells: CHO K1 cells
# T2 sequence (P46663 1-353): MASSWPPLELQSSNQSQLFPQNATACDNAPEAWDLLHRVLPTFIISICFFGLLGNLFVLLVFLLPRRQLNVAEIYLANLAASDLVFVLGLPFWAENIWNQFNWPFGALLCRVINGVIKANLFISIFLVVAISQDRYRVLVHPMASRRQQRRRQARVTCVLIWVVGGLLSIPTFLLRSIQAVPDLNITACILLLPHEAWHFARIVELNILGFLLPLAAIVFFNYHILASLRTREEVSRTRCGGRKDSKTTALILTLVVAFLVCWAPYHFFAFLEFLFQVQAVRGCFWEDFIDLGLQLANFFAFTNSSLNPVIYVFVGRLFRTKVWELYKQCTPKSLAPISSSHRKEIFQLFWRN
# How it was run: as §1
SMILES,B1R Ant. r [10 μM] % Inhibition [1] [%],B1R Ant. h [10 μM] % Inhibition [2] [%]
CN(C)C(c1ccc(Cl)cc1)C1CCC(CNC(=O)COCCN(C)S(=O)(=O)c2cccc(C(F)(F)F)c2)CC1 (stereo not drawn) [Example 314],13,74
COc1cc(C)c(S(=O)(=O)N(C)CCOCC(=O)NCCC2CCC(C(c3ccc(Cl)cc3)N(C)C)CC2)c(C)c1C (stereo not drawn) [Example 317],18,103
CN(C)C(c1ccc(Cl)cc1)C1CCC(CNC(=O)COCCN(C)S(=O)(=O)c2c(Cl)cc(Cl)cc2Cl)CC1 (stereo not drawn) [Example 318],3,104
COc1cc(C)c(S(=O)(=O)N2CCC(CCOCC(=O)NCC3CCC(C(c4cccc(F)c4)N(C)C)CC3)CC2)c(C)c1C (stereo not drawn) [Example 319],11,0
COc1cc(C)c(S(=O)(=O)N2CCN(CCOCC(=O)NCCC3CCC(C(c4ccc(Cl)cc4)N(C)C)CC3)CC2)c(C)c1C (stereo not drawn) [Example 320],−8,73
COc1ccc(S(=O)(=O)N2CCCCC2COCC(=O)NCC2CCC(C(c3ccc(Cl)cc3)N(C)C)CC2)cc1 (stereo not drawn) [Example 321],77,94
COc1ccc(S(=O)(=O)N2CCCCC2COCC(=O)NC2CCC(C(c3cccc(F)c3)N(C)C)CC2)c(OC)c1 (stereo not drawn) [Example 322],6,−14
COc1ccc(S(=O)(=O)N2CCC(OCC(=O)NC3CCC(C(c4cccc(F)c4)N(C)C)CC3)C2)cc1OC (stereo not drawn) [Example 323],23,−14
COc1ccc(S(=O)(=O)N(C)CCOCC(=O)NCC2CCC(C(c3ccc(Cl)cc3)N(C)C)CC2)cc1 (stereo not drawn) [Example 324],48,42
CN(C)C(c1cccc(F)c1)C1CCC(CCNC(=O)COCCN2CCN(S(=O)(=O)c3ccccc3)CC2)CC1 (stereo not drawn) [Example 325],6,45
CN(C)C(c1cccc(F)c1)C1CCC(CCNC(=O)COC2CCCN(S(=O)(=O)c3ccccc3)C2)CC1 (stereo not drawn) [Example 326],−6,−5
CCN(CCOCC(=O)NCC1CCC(C(c2ccc(F)cc2)N(C)C)CC1)S(=O)(=O)c1c(C)cc(OC)c(C)c1C (stereo not drawn) [Example 327],68,101
COc1ccc(S(=O)(=O)N2CCCCC2COCC(=O)NCC2CCC(C(c3cccc(F)c3)N(C)C)CC2)cc1OC (stereo not drawn) [Example 329],9,−17
CN(C)C(c1ccc(F)cc1)C1CCC(NC(=O)COC2CCN(S(=O)(=O)c3cccc(C(F)(F)F)c3)C2)CC1 (stereo not drawn) [Example 330],16,−6
CN(C)C(c1ccc(Cl)cc1)C1CCC(CNC(=O)COC2CCN(S(=O)(=O)c3cccc(C(F)(F)F)c3)C2)CC1 (stereo not drawn) [Example 331],44,30
Cc1cc(C)c(S(=O)(=O)N2CCC(OCC(=O)NC3CCC(C(c4ccc(F)cc4)N(C)C)CC3)C2)c(C)c1 (stereo not drawn) [Example 332],32,57
CN(C)C(c1cccc(F)c1)C1CCC(CNC(=O)COCCC2CCN(S(=O)(=O)c3ccccc3)CC2)CC1 (stereo not drawn) [Example 333],15,17
CN(C)C(c1ccc(F)cc1)C1CCC(CNC(=O)COCCN(C)S(=O)(=O)c2c(Cl)cccc2Cl)CC1 (stereo not drawn) [Example 334],83,103

SMILES,B1R Ant. r [10 μM] % Inhibition [1] [%],B1R Ant. h [10 μM] % Inhibition [2] [%]
CN(C)C(c1cccc(F)c1)C1CCC(NC(=O)COC2CCN(S(=O)(=O)c3ccccc3)CC2)CC1 (stereo not drawn) [Example 335],2,−8
CN(C)C(c1ccc(F)cc1)C1CCC(NC(=O)COCCN(Cc2ccccc2)S(=O)(=O)c2ccccc2)CC1 (stereo not drawn) [Example 336],8,20
CN(C)C(c1ccc(F)cc1)C1CCC(CCNC(=O)COCC2CCCCN2S(=O)(=O)c2ccc(Cl)c(Cl)c2)CC1 (stereo not drawn) [Example 337],−23,51
COc1ccc(S(=O)(=O)N2CCC(OCC(=O)NCCC3CCC(C(c4ccc(Cl)cc4)N(C)C)CC3)C2)cc1OC (stereo not drawn) [Example 338],27,−3
COc1ccc(S(=O)(=O)N(C)CCOCC(=O)NCCC2CCC(C(c3ccc(Cl)cc3)N(C)C)CC2)cc1OC (stereo not drawn) [Example 339],31,−9
COc1ccc(S(=O)(=O)N(C)CCOCC(=O)NCC2CCC(C(c3cccc(F)c3)N(C)C)CC2)cc1 (stereo not drawn) [Example 340],23,39
CN(C)C(c1cccs1)C1CCC(NC(=O)COCCN2CCN(S(=O)(=O)c3ccccc3)CC2)CC1 (stereo not drawn) [Example 341],18,−1
CN(C)C(c1ccc(F)cc1)C1CCC(CNC(=O)COCCN(Cc2ccccc2)S(=O)(=O)c2ccccc2)CC1 (stereo not drawn) [Example 342],−20,28
CN(C)C(c1ccc(Cl)cc1)C1CCC(CNC(=O)COCCN(Cc2ccccc2)S(=O)(=O)c2ccccc2)CC1 (stereo not drawn) [Example 343],−15,12
CN(C)C(c1ccc(F)cc1)C1CCC(NC(=O)COCC2CCCN2S(=O)(=O)c2ccc(Cl)c(Cl)c2)CC1 (stereo not drawn) [Example 344],12,65
COc1ccc(S(=O)(=O)N2CCCCC2COCC(=O)NCC2CCC(C(c3ccc(F)cc3)N(C)C)CC2)cc1 (stereo not drawn) [Example 345],77,76
COc1ccc(S(=O)(=O)N2CCCC2COCC(=O)NCCC2CCC(C(c3ccc(Cl)cc3)N(C)C)CC2)cc1 (stereo not drawn) [Example 346],45,52
CN(C)C(c1ccc(Cl)cc1)C1CCC(CCNC(=O)COCCN(C)S(=O)(=O)c2ccc(Cl)cc2)CC1 (stereo not drawn) [Example 347],56,85
COc1cc(C)c(S(=O)(=O)N(C)CCOCC(=O)NCC2CCC(C(c3ccc(Cl)cc3)N(C)C)CC2)c(C)c1 (stereo not drawn) [Example 348],99,103
COc1ccc(S(=O)(=O)N2CCCCC2COCC(=O)NCCC2CCC(C(c3ccc(F)cc3)N(C)C)CC2)cc1 (stereo not drawn) [Example 349],77,68
COc1ccc(S(=O)(=O)N2CCCCC2CCOCC(=O)NCC2CCC(C(c3ccc(F)cc3)N(C)C)CC2)cc1 (stereo not drawn) [Example 350],35,57
COc1ccc(S(=O)(=O)N2CCCC2COCC(=O)NCC2CCC(C(c3ccc(Cl)cc3)N(C)C)CC2)cc1 (stereo not drawn) [Example 351],34,52
COc1ccc(S(=O)(=O)N2CCCCC2COCC(=O)NC2CCC(C(c3cccc(F)c3)N(C)C)CC2)cc1OC (stereo not drawn) [Example 352],−13,−18

# From patent US8106055B2, “Substituted amide compounds” (Gruenenthal GmbH, priority 2007, dated 2012)
